13 compounds from PubChem BioAssay (NCI) can be followed below.

Structures are written as SMILES.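 All cell lines were grown in 96-well plates and treated with compound for 48 hours. TGI is the concentration that stops growth completely.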

Test systems include A549 NSCLC; MALME-3M melanoma; EKVX NSCLC; SF-268 CNS; HCC-2998 colon; MDA-MB-231 breast; NCI-H226 lung; COLO 205 colon; T-47D breast; RPMI-8226 leukemia; SF-539 CNS; SK-MEL-5 melanoma; RXF 393 renal; NCI-H522 lung; SK-MEL-2 melanoma; SR leukemia; HCT-116 colon; UACC-62 melanoma; 786-0 renal; M19-MEL melanoma.
What all share (assay): DTP human tumour cell line panel, 48 h

Take `CC(=O)OC/C=C\Cn1ncc(=O)[nH]c1=O`: the TGI in the experiment with A549 NSCLC is 58.9 µM; in the experiment with MALME-3M melanoma it was 31.5 µM; in the experiment with EKVX NSCLC, 38.8 µM; in the experiment on SF-268 CNS, 36.7 µM; in the experiment with HCC-2998 colon, 35 µM; in the experiment on MDA-MB-231 breast it was 68 µM. Further, the TGI in the experiment on NCI-H226 lung came to 36 µM; in the experiment on COLO 205 colon, 37.9 µM; with T-47D breast it was 69.9 µM; in the experiment with RPMI-8226 leukemia, 31.4 µM; in the experiment with SF-539 CNS, 35.7 µM; in the experiment with SK-MEL-5 melanoma, 26.7 µM. Also, the TGI with RXF 393 renal is 37.1 µM; with NCI-H522 lung, 32.4 µM; in the experiment with SK-MEL-2 melanoma, 40.2 µM.
For `OCC1NC(CO)C(O)C1O` (centres undefined), the TGI in the experiment on SR leukemia, in the experiment on MALME-3M melanoma, with HCC-2998 colon, with MDA-MB-231 breast, in the experiment with NCI-H226 lung and in the experiment on COLO 205 colon was more than 100 µM each time. Moreover, the TGI with HCT-116 colon, in the experiment with T-47D breast, with UACC-62 melanoma, in the experiment on RPMI-8226 leukemia, in the experiment with SK-MEL-5 melanoma and with RXF 393 renal was more than 100 µM in each case. Moreover, the total growth inhibition concentration (TGI) in the experiment on SK-MEL-2 melanoma is more than 100 µM.
`CCOP(=O)(OCC)C(Cc1c[nH]c2ccccc12)C(=O)O` (centres undefined): the concentration for total growth inhibition (TGI) with A549 NSCLC, in the experiment on SR leukemia, in the experiment with HCC-2998 colon, in the experiment with MDA-MB-231 breast, with NCI-H226 lung and in the experiment on COLO 205 colon was more than 100 µM throughout. The TGI in the experiment with HCT-116 colon, in the experiment on T-47D breast, with RPMI-8226 leukemia, with SK-MEL-5 melanoma, in the experiment with NCI-H522 lung and with SK-MEL-2 melanoma was more than 100 µM in each case.
As to `O=C(N[C@H](CO)[C@H](O)c1ccc([N+](=O)[O-])cc1)C(Cl)Cl`, the TGI with A549 NSCLC, in the experiment with SR leukemia, in the experiment with 786-0 renal, in the experiment with MALME-3M melanoma, in the experiment on EKVX NSCLC and with SF-268 CNS was more than 100 µM in each case. The TGI in the experiment with HCC-2998 colon, in the experiment with MDA-MB-231 breast, in the experiment with NCI-H226 lung, in the experiment with COLO 205 colon, with HCT-116 colon and in the experiment with UACC-62 melanoma was more than 100 µM each time. Also, the TGI in the experiment with RPMI-8226 leukemia, in the experiment on SF-539 CNS, with SK-MEL-5 melanoma, in the experiment on M19-MEL melanoma, in the experiment with RXF 393 renal and in the experiment with NCI-H522 lung was more than 100 µM in each case. In addition, the TGI in the experiment with SK-MEL-2 melanoma is more than 100 µM.
With `COc1ncnc2c(Cl)c(C(O)c3ccccc3)c(Cl)cc12` (centres undefined), the TGI in the experiment on A549 NSCLC was more than 100 µM; in the experiment with SR leukemia, 22.7 µM; in the experiment on MALME-3M melanoma, 83 µM; in the experiment on EKVX NSCLC, more than 100 µM; with SF-268 CNS, 57.7 µM; with MDA-MB-231 breast it was 58.6 µM. The TGI with COLO 205 colon was more than 100 µM; in the experiment with HCT-116 colon, 44.1 µM; with T-47D breast it was more than 100 µM; in the experiment with UACC-62 melanoma, 52.1 µM; in the experiment with RPMI-8226 leukemia, 66.4 µM; in the experiment with SF-539 CNS, 50.2 µM. For the same compound, the TGI was more than 100 µM in the experiment with SK-MEL-5 melanoma, 35.5 µM with RXF 393 renal, more than 100 µM in the experiment with NCI-H522 lung and more than 100 µM in the experiment on SK-MEL-2 melanoma.
For `O=C(Nc1ccc(C(F)(F)F)cc1[N+](=O)[O-])C(=O)Nn1c(=S)[nH]c2ccccc2c1=O`, the TGI in the experiment on A549 NSCLC, with SR leukemia, with MALME-3M melanoma, in the experiment on EKVX NSCLC, in the experiment on SF-268 CNS and in the experiment with HCC-2998 colon was more than 100 µM each time. In addition, the concentration for total growth inhibition (TGI) with NCI-H226 lung, in the experiment with COLO 205 colon, in the experiment with HCT-116 colon, in the experiment on UACC-62 melanoma, in the experiment on RPMI-8226 leukemia and in the experiment on SF-539 CNS was more than 100 µM throughout. Further, the TGI in the experiment with SK-MEL-5 melanoma, with M19-MEL melanoma, in the experiment with RXF 393 renal, in the experiment with NCI-H522 lung and in the experiment with SK-MEL-2 melanoma was more than 100 µM in each case.
With `Nc1ccc(C2(c3ccc(N)cc3)C3CC4CC(C3)CC2C4)cc1`, the total growth inhibition concentration (TGI) in the experiment with SR leukemia was more than 100 µM; in the experiment on EKVX NSCLC, 32 µM; in the experiment on SF-268 CNS, 27.3 µM; with HCC-2998 colon, 41 µM; with MDA-MB-231 breast it was 37.5 µM; with NCI-H226 lung, 45.1 µM. Moreover, the TGI came out at 42.1 µM in the experiment on HCT-116 colon; 42.8 µM in the experiment with T-47D breast; 30.6 µM with UACC-62 melanoma; 17.8 µM in the experiment on RXF 393 renal; 30.5 µM in the experiment with NCI-H522 lung; 34.8 µM with SK-MEL-2 melanoma.
In the case of `Cc1ccc(S(=O)(=O)NCCCSCCN)cc1`, the concentration for total growth inhibition (TGI) in the experiment on A549 NSCLC, with SR leukemia, in the experiment with SF-268 CNS, in the experiment with HCC-2998 colon, in the experiment with MDA-MB-231 breast and with NCI-H226 lung was more than 100 µM throughout. Besides, the TGI with COLO 205 colon, in the experiment with HCT-116 colon, with T-47D breast, in the experiment with SK-MEL-5 melanoma, in the experiment with RXF 393 renal and with NCI-H522 lung was more than 100 µM throughout.
Take `COc1ccc(/C=C/c2cc(O)cc(OC3OC(CO)C(O)C(O)C3O)c2)cc1O` (centres undefined): the TGI in the experiment on A549 NSCLC, with SR leukemia, with 786-0 renal, with MALME-3M melanoma, in the experiment on EKVX NSCLC and in the experiment with SF-268 CNS was more than 100 µM throughout. Moreover, the TGI in the experiment with HCC-2998 colon, in the experiment on MDA-MB-231 breast, in the experiment on NCI-H226 lung, with COLO 205 colon, with HCT-116 colon and with T-47D breast was more than 100 µM throughout. In addition, the TGI with UACC-62 melanoma, with RPMI-8226 leukemia, in the experiment on SF-539 CNS, in the experiment on SK-MEL-5 melanoma, in the experiment on RXF 393 renal and in the experiment on NCI-H522 lung was more than 100 µM each time. The compound further showed a TGI with SK-MEL-2 melanoma of more than 100 µM.
Take `O=S1(=O)C[C@H](NCc2ccccc2)[C@H](NCc2ccccc2)C1`: the TGI in the experiment on A549 NSCLC, in the experiment on SR leukemia, with MALME-3M melanoma, in the experiment on EKVX NSCLC, with SF-268 CNS and in the experiment on HCC-2998 colon was more than 100 µM in each case. Also, the TGI in the experiment on MDA-MB-231 breast is more than 100 µM; with NCI-H226 lung it was more than 100 µM; in the experiment on COLO 205 colon, more than 100 µM; with HCT-116 colon, more than 100 µM; in the experiment with T-47D breast, 86.4 µM; with UACC-62 melanoma, more than 100 µM. The TGI in the experiment with RPMI-8226 leukemia is 86.7 µM; in the experiment on SF-539 CNS, more than 100 µM; in the experiment with SK-MEL-5 melanoma it was more than 100 µM; in the experiment on RXF 393 renal it was more than 100 µM; with NCI-H522 lung it was 68.2 µM; in the experiment with SK-MEL-2 melanoma it was more than 100 µM.
On to `COc1ccc(CCn2ccc(C)n2)c(OC)c1`, for which the total growth inhibition concentration (TGI) in the experiment with A549 NSCLC, with MALME-3M melanoma, in the experiment on EKVX NSCLC, with SF-268 CNS, in the experiment on MDA-MB-231 breast and in the experiment on COLO 205 colon was more than 100 µM each time. Moreover, the TGI in the experiment with HCT-116 colon, in the experiment with T-47D breast, in the experiment on UACC-62 melanoma, in the experiment on SF-539 CNS, in the experiment on SK-MEL-5 melanoma and in the experiment with RXF 393 renal was more than 100 µM each time.
Consider `CC=C/C=C/[C@@H]1O[C@](O)([C@H](CC)C(=O)NC/C=C/C=C(\C)[C@@H](OC)[C@@H](C)[C@@H]2O[C@H](/C=C/C=C/C=C(\C)C(=O)c3c(O)cc[nH]c3=O)[C@H](O)[C@@H]2O)[C@H](O)[C@H](O)C1(C)C`, for which the TGI in the experiment on A549 NSCLC, with SR leukemia, with MALME-3M melanoma, in the experiment on EKVX NSCLC, in the experiment with SF-268 CNS and in the experiment with HCC-2998 colon was more than 100 µM throughout. The total growth inhibition concentration (TGI) in the experiment with UACC-62 melanoma, in the experiment on RPMI-8226 leukemia, with SF-539 CNS, in the experiment with NCI-H522 lung and in the experiment on SK-MEL-2 melanoma was more than 100 µM throughout.
As to `O=Nn1c2ccccc2c2ccccc21`, the TGI in the experiment on A549 NSCLC is more than 100 µM; with 786-0 renal it was more than 100 µM; in the experiment on MALME-3M melanoma, more than 100 µM; in the experiment with EKVX NSCLC it was more than 100 µM; in the experiment on SF-268 CNS, more than 100 µM; in the experiment on HCC-2998 colon, 60.7 µM. Further, the TGI in the experiment on MDA-MB-231 breast was more than 100 µM; in the experiment on NCI-H226 lung it was more than 100 µM; in the experiment with COLO 205 colon, 33.2 µM; in the experiment on HCT-116 colon, more than 100 µM; with T-47D breast it was more than 100 µM; with UACC-62 melanoma, more than 100 µM. In addition, the TGI with RPMI-8226 leukemia, in the experiment on SF-539 CNS, with SK-MEL-5 melanoma, in the experiment on RXF 393 renal, in the experiment with NCI-H522 lung and in the experiment with SK-MEL-2 melanoma was more than 100 µM throughout.
